Activity calls are given as the source filed them. The rule behind the calls is not given here.
Key:
MCF7 [1] = experiment: Induction of autophagy in human MCF7 cells assessed as p62/GAPDH ratio (reference value: 0.96); format: functional
MCF7 [2] = experiment: Induction of autophagy in human MCF7 cells assessed as upregulation of LC3-II to LC3-I ratio at 20 uM incubated for 4 hrs by Western blotting analysis; format: functional, cell-based
MCF7 [3] = experiment: Induction of autophagy in human MCF7 cells assessed as p62/GAPDH ratio (reference value: 1.20); format: functional
MCF7 [4] = experiment: Induction of autophagy in wild type human MCF7 cells assessed as increase in LC3-II level at 20 uM incubated for 4 hrs by Western blotting analysis; format: functional, cell-based
MCF7 [5] = experiment: Induction of autophagy in wild type human MCF7 cells assessed as decrease in LC3-I level at 20 uM incubated for 4 hrs by Western blotting analysis; format: functional, cell-based
HEK293 [6] = experiment: Inhibition of autophagy in HEK293 cells assessed as increase in LC3-II protein level incubated for 4 hrs by Western blotting analysis; format: functional, cell-based; details: Homo sapiens, dose 0.1-2 µM
HEK293 [7] = experiment: Inhibition of autophagy in HEK293 cells assessed as increase in p62 protein level incubated for 4 hrs by Western blotting analysis; format: functional, cell-based; details: Homo sapiens, dose 0.1-2 µM
HEK293 [8] = experiment: Inhibition of autophagy in HEK293 cells assessed as increase in LC3-I protein level incubated for 4 hrs by Western blotting analysis; format: functional, cell-based; details: Homo sapiens, dose 0.1-2 µM
MCF7 [9] = experiment: Inhibition of autophagy in human MCF7 cells assessed as increase in LC3-II protein level incubated for 4 hrs by Western blotting analysis; format: functional, cell-based; details: dose 0.1-2 µM
MCF7 [10] = experiment: Inhibition of autophagy in human MCF7 cells assessed as increase in p62 protein level incubated for 4 hrs by Western blotting analysis; format: functional, cell-based; details: dose 0.1-2 µM
MCF7 [11] = experiment: Inhibition of autophagy in human MCF7 cells assessed as increase in LC3-I protein level incubated for 4 hrs by Western blotting analysis; format: functional, cell-based; details: dose 0.1-2 µM
L02 = experiment: Cytotoxicity against human LO2 cells assessed as reduction in cell viability at 0.3125 to 40 uM incubated for 24 hrs by MTT assay; format: toxicity, cell-based; details: l02, 24 h, dose 0.3125-40 µM
MCF7 [12] = experiment: Induction of autophagy in human MCF7 cells expressing pEGFP-LC3 assessed as increase in LC3 puncta at 20 uM incubated for 4 hrs by fluorescence microscopic analysis; format: functional, cell-based
MCF7 [13] = experiment: Induction of autophagy in human MCF7 cells assessed as increase in LC3-II/LC3-1 rate at 20 uM incubated for 4 hrs by Western blotting analysis; format: functional, cell-based
HEK293 [14] = experiment: Induction of autophagy in HEK293 cells assessed as decrease in p62 protein level incubated for 4 hrs by Western blotting analysis; format: functional, cell-based; details: Homo sapiens, dose 0.5-10 µM
MCF7 [15] = experiment: Induction of autophagy in human […] cells assessed as decrease in p62 protein level incubated for 4 hrs by Western blotting analysis; format: functional, cell-based; details: dose 0.5-10 µM
HEK293 [16] = experiment: Induction of autophagy in HEK293 cells assessed as increase in LC3-II protein level incubated for 4 hrs by Western blotting analysis; format: functional, cell-based; details: Homo sapiens, dose 0.5-10 µM
MCF7 [17] = experiment: Induction of autophagy in human […] cells increase in LC3-II protein level incubated for 4 hrs by Western blotting analysis; format: functional, cell-based; details: dose 0.5-10 µM
MCF7 [18] = experiment: Induction of autophagy in wild type human MCF7 cells assessed as increase in LC3-II level at 10 uM incubated for 1 to 4 hrs by Western blotting analysis; format: functional, cell-based; details: time 1-4 hrs
MCF7 [19] = experiment: Induction of autophagy in wild type human MCF7 cells assessed as decrease in p62 level at 10 uM incubated for 1 to 4 hrs by Western blotting analysis; format: functional, cell-based; details: time 1-4 hrs
MCF7 [20] = experiment: Induction of autophagy in wild type human MCF7 cells assessed as increase in LC3-II level at 10 uM incubated for 6 to 8 hrs by Western blotting analysis; format: functional, cell-based; details: time 6-8 hrs
BEAS-2B = experiment: Cytotoxicity against human BEAS-2B cells assessed as reduction in cell viability at 0.3125 to 40 uM incubated for 24 hrs by MTT assay; format: toxicity, cell-based; details: dose 0.3125-40 µM
MCF7 [21] = experiment: Cytotoxicity against human MCF7 cells assessed as reduction in cell viability at 0.3125 to 40 uM incubated for 24 hrs by MTT assay; format: functional, cell-based; details: dose 0.3125-40 µM
MCF7 [22] = experiment: Induction of autophagy in human MCF7 cells assessed as decrease in p62 level at 20 uM incubated for 4 hrs by Western blotting analysis; format: functional, cell-based
MCF7 [23] = experiment: Induction of autophagic flux in wild type human MCF7 cells assessed as increase in LC3-II protein level at 10 uM incubated for 4 hrs in the presence of bafilomycin A1 by Western blotting analysis; format: functional, cell-based
MCF7 [24] = experiment: Induction of autophagic flux in wild type human MCF7 cells assessed as increase in LC3-I protein level at 10 uM incubated for 4 hrs in the presence of bafilomycin A1 by Western blotting analysis; format: functional, cell-based
MCF7 [25] = experiment: Induction of autophagic flux in wild type human MCF7 cells assessed as increase in p62 protein level at 10 uM incubated for 4 hrs in the presence of bafilomycin A1 by Western blotting analysis; format: functional, cell-based
MCF7 [26] = experiment: Induction of autophagy in pEGFP-LC3-labeled human MCF7 cells assessed as formation of autophagosome by measuring the appearance of clustered granules near the nucleus at 10 uM by laser confocal microscopic imaging analysis; format: functional, cell-based; details: time 1-8 hrs
[27] = Cytotoxicity against human […] cells assessed as reduction in cell viability at 0.3125 to 40 uM incubated for 24 hrs by MTT assay; format: toxicity, cell-based; details: dose 0.3125-40 µM

Work on COc1c(C)c(O)c(CC(C)C)c(O)c1Cc1c(O)c(CC(C)C)c(O)c(C)c1OC yielded a Ratio (MCF7 [1]) of 0.95.
Compound COc1c(C)c(O)c(C(=O)C(C)(C)C)c(O)c1Cc1c(O)c(C(=O)C(C)(C)C)c(O)c(C)c1OC has a Ratio (MCF7 [1]) of 1.18.
For CCCCC(=O)c1c(O)c(C)c(OC)c(Cc2c(O)c(C(=O)CCCC)c(O)c(C)c2OC)c1O, the Activity (MCF7 [2]) was “Active” and the Ratio (MCF7 [1]) was 0.86.
In the case of COc1c(C)c(O)c(C(=O)C(C)C)c(O)c1Cc1c(O)c(C(=O)C(C)(C)C)c(O)c(C)c1OC, the Activity (MCF7 [2]) was “Active” and the Ratio (MCF7 [3]) was 0.98.
In the case of CCN(CC)CCCC(C)Nc1ccnc2cc(Cl)ccc12 (stereo unspecified), the Activity (MCF7 [4]) was “Active” and the Activity (MCF7 [5]) was “inactive”.
For CCCCCc1c(O)c(C)c(OC)c(Cc2c(O)c(CCCCC)c(O)c(C)c2OC)c1O, the Ratio (MCF7 [1]) was 0.97.
With CCCCC(=O)c1c(O)c(C)c(O)c(Cc2c(O)c(C)c(O)c(C(=O)CCCC)c2OC)c1OC the Activity (MCF7 [2]) was “Active” and the Ratio (MCF7 [1]) was 0.84.
In the case of CCC(=O)c1c(O)c(C)c(OC)c(Cc2c(O)c(C(=O)C(C)C)c(O)c(C)c2OC)c1O, the Activity (MCF7 [2]) was “Active” and the Ratio (MCF7 [3]) was 0.86.
For COc1c(C)c(O)c(C(=O)C(C)C)c(O)c1Cc1c(O)c(C)c(O)c(C(=O)C(C)C)c1OC, the Activity (MCF7 [2]) was “Active” and the Ratio (MCF7 [3]) was 0.7.
With CCCCC(=O)c1c(O)c(C)c(OC)c(Cc2c(O)c(C(C)=O)c(O)c(C)c2OC)c1O the Activity (MCF7 [2]) was “Active” and the Ratio (MCF7 [3]) was 0.85.
In the case of CCC(=O)c1c(O)c(Cc2c(O)c(C(=O)CC)c(O)c(C(=O)CC)c2O)c(O)c(C(=O)CC)c1O, the inhibition (HEK293 [6]) was “Dose-dependent-effect”, the inhibition (HEK293 [7]) was “Dose-dependent-effect” and the inhibition (HEK293 [8]) was “Dose-dependent-effect”. For the same compound, the inhibition (MCF7 [9]) was “Dose-dependent-effect”, the inhibition (MCF7 [10]) was “Dose-dependent-effect” and the inhibition (MCF7 [11]) was “Dose-dependent-effect”.
For COc1c(C)c(O)c(C(C)=O)c(O)c1Cc1c(O)c(C)c(O)c(C(=O)C(C)C)c1OC, the Activity (MCF7 [2]) was “Active” and the Ratio (MCF7 [3]) was 0.71.
For COc1c(C)c(O)c(C(C)=O)c(O)c1Cc1c(O)c(C(=O)C(C)C)c(O)c(C)c1OC, the Activity (MCF7 [2]) was “Active” and the Ratio (MCF7 [3]) was 0.84.
Compound COc1c(Cc2c(O)c(C)c(O)c(C(=O)C(C)C)c2OC)c(O)c(C)c(O)c1C(=O)C(C)C has a Ratio (MCF7 [1]) of 0.92.
CCCCC(=O)c1c(O)c(C)c(OC)c(Cc2c(O)c(C)c(O)c(C(=O)CCCC)c2OC)c1O gave a Ratio (MCF7 [3]) of 1.05.
With COc1c(C)c(O)c(C(=O)C(C)C)c(O)c1Cc1c(O)c(C(=O)C(C)C)c(O)c(C)c1OC the Activity (L02) was “Toxic”, the Activity (MCF7 [12]) was “Active; Higher Activity Observed” and the Activity (MCF7 [4]) was “Active”. The Activity (MCF7 [5]) was “Active”, the Activity (MCF7 [13]) was “Active” and the Activity (MCF7 [2]) was “Active”. The Ratio (MCF7 [1]) was 0.73, the Activity (HEK293 [14]) was “Dose-dependent-effect” and the Activity (MCF7 [15]) was “Dose-dependent-effect”. The Activity (HEK293 [16]) was “Dose-dependent-effect”, the Activity (MCF7 [17]) was “Dose-dependent-effect” and the Activity (MCF7 [18]) was “Active”. The Activity (MCF7 [19]) was “Active”, the Activity (MCF7 [20]) was “inactive” and the Activity (BEAS-2B) was “Toxic”. For the same compound, the Activity (MCF7 [21]) was “Active”, the Activity (MCF7 [22]) was “Active” and the Activity (MCF7 [23]) was “Active”. For the same compound, the Activity (MCF7 [24]) was “Active”, the Activity (MCF7 [25]) was “Active” and the Activity (MCF7 [26]) was “Time-dependent-effect”. The Activity [27] was “Toxic”.

— ChEMBL document CHEMBL6153039, “Synthesis and structural modification of the natural product Ivesinol to discover novel autophagy activators” (Eur J Med Chem, 2025)
